≈ marks a conversion by molar mass, not a printed value. Like-named read-outs stand apart in the source and are kept apart here.
Legend:
[1] = biological target: catalytical domain of human IRAK4 (a.a. 163-460) (Homo sapiens (Human), UniProt Q9NWZ3); assay: IRAK4 SPR binding assay; settings: single-cycle, 1:1 interaction model
[2] = Kinetic solubility assay (CLND), potassium phosphate buffer pH 6.8; type: physicochemical; settings: pH 6.8, 2% DMSO, 24 hours at ambient temperature; for solubility at 24 h / solubility kinetic at 24 h: potassium phosphate buffer, kinetic from dmso stock; for solubility at 24 h: pH 6.8, aqueous buffer; for solubility kinetic at 24 h: aqueous buffer, comparator table
MDR1 = MDR1 (Homo sapiens (Human), UniProt P08183); assay: MDR1-MDCK assay (apparent permeability, efflux ratio); type: in vitro ADME; settings: human, MDCK-MDR1, 1 μM
Sequence of MDR1 (P08183 whole entry, the tested form may be a part): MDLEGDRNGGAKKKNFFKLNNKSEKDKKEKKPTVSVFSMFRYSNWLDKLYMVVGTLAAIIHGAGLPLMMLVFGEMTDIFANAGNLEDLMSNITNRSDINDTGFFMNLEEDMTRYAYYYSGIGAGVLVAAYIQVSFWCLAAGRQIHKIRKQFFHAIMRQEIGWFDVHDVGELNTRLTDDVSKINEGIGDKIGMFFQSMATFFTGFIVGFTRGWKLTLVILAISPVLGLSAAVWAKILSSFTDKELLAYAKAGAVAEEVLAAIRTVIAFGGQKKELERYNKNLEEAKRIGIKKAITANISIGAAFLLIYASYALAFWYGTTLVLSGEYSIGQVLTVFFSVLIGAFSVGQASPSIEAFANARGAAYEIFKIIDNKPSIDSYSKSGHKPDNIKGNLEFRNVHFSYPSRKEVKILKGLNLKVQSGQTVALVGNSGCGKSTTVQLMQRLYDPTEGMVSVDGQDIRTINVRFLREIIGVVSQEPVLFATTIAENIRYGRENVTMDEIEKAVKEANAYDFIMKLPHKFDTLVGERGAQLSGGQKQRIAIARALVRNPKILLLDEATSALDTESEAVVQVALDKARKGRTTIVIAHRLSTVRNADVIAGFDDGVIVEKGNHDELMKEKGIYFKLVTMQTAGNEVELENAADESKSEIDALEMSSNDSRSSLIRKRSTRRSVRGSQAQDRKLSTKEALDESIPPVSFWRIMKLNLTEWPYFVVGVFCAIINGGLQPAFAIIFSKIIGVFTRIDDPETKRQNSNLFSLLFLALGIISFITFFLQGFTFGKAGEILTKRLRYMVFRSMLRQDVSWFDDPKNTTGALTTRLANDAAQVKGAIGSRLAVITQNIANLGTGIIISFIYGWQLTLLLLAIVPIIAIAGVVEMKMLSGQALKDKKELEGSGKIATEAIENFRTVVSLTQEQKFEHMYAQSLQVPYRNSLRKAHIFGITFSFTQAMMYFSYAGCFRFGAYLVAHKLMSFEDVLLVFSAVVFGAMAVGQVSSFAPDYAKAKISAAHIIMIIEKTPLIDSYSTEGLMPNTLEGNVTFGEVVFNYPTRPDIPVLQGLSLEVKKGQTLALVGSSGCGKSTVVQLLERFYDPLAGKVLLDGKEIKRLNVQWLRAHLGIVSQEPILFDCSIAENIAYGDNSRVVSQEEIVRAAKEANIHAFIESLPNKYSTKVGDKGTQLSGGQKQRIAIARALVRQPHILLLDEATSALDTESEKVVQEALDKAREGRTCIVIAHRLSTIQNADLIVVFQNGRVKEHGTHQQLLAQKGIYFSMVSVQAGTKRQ

[3] = Kpuu assay (in vivo brain-to-plasma partition, unbound); settings: intravenous infusion 4 to 24 h, unbound drug partition coefficient; for Kp: brain (unbound) versus plasma (unbound), read-out: Brain Kpu,u
IRAK4 = IRAK4 (Homo sapiens (Human), UniProt Q9NWZ3); assay: IRAK4 2-hour 1 mM ATP Biochemical Assay (MesoScale Detection format)
Sequence of IRAK4 (Q9NWZ3 whole entry): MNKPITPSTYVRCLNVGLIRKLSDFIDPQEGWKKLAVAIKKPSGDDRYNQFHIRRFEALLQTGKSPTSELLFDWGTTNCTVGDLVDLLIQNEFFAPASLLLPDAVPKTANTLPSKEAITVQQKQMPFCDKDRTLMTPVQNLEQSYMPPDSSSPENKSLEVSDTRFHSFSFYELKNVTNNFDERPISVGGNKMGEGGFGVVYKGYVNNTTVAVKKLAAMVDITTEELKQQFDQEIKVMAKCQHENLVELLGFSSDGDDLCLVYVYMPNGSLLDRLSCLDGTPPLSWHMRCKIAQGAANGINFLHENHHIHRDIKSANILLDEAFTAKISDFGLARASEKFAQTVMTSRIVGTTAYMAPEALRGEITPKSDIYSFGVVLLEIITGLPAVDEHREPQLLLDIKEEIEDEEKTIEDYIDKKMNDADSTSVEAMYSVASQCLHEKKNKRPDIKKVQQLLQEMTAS

[4] = biological target: Human MDR1 transfected MDCK cells (Homo sapiens (Human), UniProt P08183); assay: MDR1-MDCK assay (apparent permeability, efflux ratio); type: in vitro ADME; settings: 1 μM, 120 minutes
Sequence of Human MDR1 transfected MDCK cells (P08183 whole entry): as the sequence (P08183 whole entry, the tested form may be a part) above

[5] = read-out: MDR1-MDCK_Efflux Ratio
[6] = 100 pM IRAK4, read-out: IRAK4 IC50
[7] = comparator table, read-out: MDR1-MDCK Efflux Ratio

Sequence of catalytical domain of human IRAK4 (a.a. 163-460) (Q9NWZ3 163-460): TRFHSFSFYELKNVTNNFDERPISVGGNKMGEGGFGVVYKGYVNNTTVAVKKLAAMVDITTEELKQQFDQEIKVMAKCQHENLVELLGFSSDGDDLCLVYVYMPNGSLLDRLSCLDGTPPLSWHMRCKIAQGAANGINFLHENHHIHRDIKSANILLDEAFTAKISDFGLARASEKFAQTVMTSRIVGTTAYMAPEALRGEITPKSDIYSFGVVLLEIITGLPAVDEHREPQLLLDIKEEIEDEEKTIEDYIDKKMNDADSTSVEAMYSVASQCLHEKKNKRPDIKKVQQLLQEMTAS

Compound | IRAK4 SPR binding Half Life [1] [min] | solubility at 24 h [2] [µg/mL] | efflux ratio at 120 min, 1 μM (MDR1; [5]) | Kp [3] | IC50 (IRAK4; [6]) [nM] | also measured
C[C@@H]1C[C@@H]1n1cccc(NC(=O)c2cc3cn(C45COC(CF)(C4)C5)nc3nc2OC2CC2)c1=O [Example 92] |  |  |  |  | 1.7 | Solubility pH 6.8 [2]: 12.8 ug/mL; MDR1-MDCK_Efflux Ratio [4]: 5.77
CC12CC(n3cc4cc(C(=O)Nc5cccn([C@H]6C[C@H]6F)c5=O)c(OC5CC5)nc4n3)(CO1)C2 [Example 85, 6-cyclopropoxy-N-(1-((1S,2R)-2-fluorocyclopropyl)-2-oxo-1,2-dihydropyridin-3-yl)-2-(1-methyl-2-oxabicyclo[2.1.1]hexan-4-yl)-2H-pyrazolo[3,4-b]pyridine-5-carboxamide] | 48 | 20.1 (≈ 43.2 µM) | 7.21 | 0.3 | 0.2 | 
CC(C)Oc1cc2nn(C34COC(C)(C3)C4)cc2cc1C(=O)Nc1cccn(C)c1=O [Comparator 1A, 6-isopropoxy-N-(1-methyl-2-oxo-1,2-dihydropyridin-3-yl)-2-(1-methyl-2-oxabicyclo[2.1.1]hexan-4-yl)-2H-indazole-5-carboxamide, reference compound] |  |  |  |  |  | IRAK4 SPR binding Half Life ([1]; comparator table): 9.0 min; solubility kinetic at 24 h [2]: 60 µg/mL (≈ 142 µM); efflux ratio at 120 min, 1 μM (MDR1; [7]): 1.2; Kp ([3]; comparator table): 1
CC(C)Oc1nc2nn([C@@]34CC[C@@](C)(C3)OC4)cc2cc1C(=O)Nc1cccn(C2CC2)c1=O (single isomer, unassigned) [Example 47] | 54 | 1.09 (≈ 2.35 µM) | 2.04 | 1.6 | 0.2 | 
C[C@@H]1C[C@@H]1n1cccc(NC(=O)c2cc3cn([C@@]45CC[C@@H](C4)OC5)nc3nc2OC2CC2)c1=O (single isomer, unassigned) [Example 94] |  |  |  |  | 0.6 | Solubility pH 6.8 [2]: 14.7 ug/mL; MDR1-MDCK_Efflux Ratio [4]: 2.73
CC(C)Oc1nc2nn([C@]34CC[C@](C)(C3)OC4)cc2cc1C(=O)Nc1cccn(C)c1=O (single isomer, unassigned) [Comparator 1C, reference compound] |  |  |  |  |  | IRAK4 SPR binding Half Life ([1]; comparator table): 27.1 min; solubility kinetic at 24 h [2]: 44.3 µg/mL (≈ 101 µM); efflux ratio at 120 min, 1 μM (MDR1; [7]): 1.2; Kp ([3]; comparator table): 1.3; IC50 (IRAK4; 100 pM IRAK4, comparator table, read-out: IRAK4 Biochemical IC50): 0.4 nM
CC(C)Oc1nc2nn([C@]34CC[C@](C)(C3)OC4)cc2cc1C(=O)Nc1cccn(C2CC2)c1=O (single isomer, unassigned) [Example 48] | 58 | 1.48 (≈ 3.19 µM) | 1.73 |  | 0.2 | 
CC(C)Oc1nc2nn(C34COC(C)(C3)C4)cc2cc1C(=O)Nc1cccn(C2CC2)c1=O [Example 9, N-(1-cyclopropyl-2-oxo-1,2-dihydropyridin-3-yl)-6-isopropoxy-2-(1-methyl-2-oxabicyclo[2.1.1]hexan-4-yl)-2H-pyrazolo[3,4-b]pyridine-5-carboxamide] | 80.4 | 18.7 (≈ 41.6 µM) | 3.26 | 0.8 | 0.3 | 
COCC12CC(n3cc4cc(C(=O)Nc5cccn([C@H]6C[C@H]6F)c5=O)c(OC5CC5)nc4n3)(CO1)C2 (single isomer, unassigned) [Example 86] | 74 | 13.9 (≈ 28.1 µM) | 18.7 |  | 0.2 | 
CC(C)Oc1cc2nn([C@@]34CC[C@@](C)(C3)OC4)cc2cc1C(=O)Nc1cccn(C2CC2)c1=O [Example 2, N-(1-cyclopropyl-2-oxo-1,2-dihydropyridin-3-yl)-6-isopropoxy-2-((1S,4S)-1-methyl-2-oxabicyclo[2.2.1]heptan-4-yl)-2H-indazole-5-carboxamide] | 52.85 | 51.7 (≈ 112 µM) | 1.58 | 0.9 | 0.4 | 
CC(C)Oc1nc2nn(C34COC(CF)(C3)C4)cc2cc1C(=O)Nc1cccn(C2CC2)c1=O [Example 10, N-(1-cyclopropyl-2-oxo-1,2-dihydropyridin-3-yl)-2-(1-(fluoromethyl)-2-oxabicyclo[2.1.1]hexan-4-yl)-6-isopropoxy-2H-pyrazolo[3,4-b]pyridine-5-carboxamide] | 73.4 | 22.7 (≈ 48.5 µM) | 3.4 | 0.6 | 0.2 | 
C[C@]12CC[C@](n3cc4cc(C(=O)Nc5cccn(C6CC6)c5=O)c(OC5CCC5)cc4n3)(CO1)C2 (single isomer, unassigned) [Example 41] | 31.6 | 19.7 (≈ 41.5 µM) | 1.71 |  | 0.2 | Brain Kpu,u [3]: 0.9

Continued, in another order:

IRAK4 SPR binding Half Life [1] [min] | solubility at 24 h [2] [µg/mL] | efflux ratio at 120 min, 1 μM (MDR1; [5]) | Kp [3] | IC50 (IRAK4; [6]) [nM] | Compound | also measured
70.7 | 38.4 (≈ 79.3 µM) | 5.16 | 0.3 | 0.2 | CC(C)Oc1cc2nn(C34COC(CF)(C3)C4)cc2cc1C(=O)Nc1cccn([C@H]2C[C@H]2F)c1=O [Example 52, N-(1-((1S,2R)-2-fluorocyclopropyl)-2-oxo-1,2-dihydropyridin-3-yl)-2-(1-(fluoromethyl)-2-oxabicyclo[2.1.1]hexan-4-yl)-6-isopropoxy-2H-indazole-5-carboxamide] | 
47.2 | 58.9 (≈ 118 µM) | 4.35 |  | 0.4 | COCC12CC(n3cc4cc(C(=O)Nc5cccn([C@H]6C[C@@H]6F)c5=O)c(OC(C)C)nc4n3)(CO1)C2 (single isomer, unassigned) [Example 64] | 
 |  |  |  | 37 | CC(C)Oc1cc2nn(C34COC(CF)(C3)C4)cc2cc1C(=O)Nc1cccn([C@@H]2C[C@@H]2C)c1=O [Example 81, 2-(1-(fluoromethyl)-2-oxabicyclo[2.1.1]hexan-4-yl)-6-isopropoxy-N-(1-((1R,2S)-2-methylcyclopropyl)-2-oxo-1,2-dihydropyridin-3-yl)-2H-indazole-5-carboxamide] | MDR1-MDCK_Efflux Ratio [4]: 1.95
139 | 42.3 (≈ 88 µM) | 3.47 | 0.4 | 0.1 | CC(C)Oc1cc2nn([C@]34CC[C@](C)(C3)OC4)cc2cc1C(=O)Nc1cccn([C@H]2C[C@H]2F)c1=O (single isomer, unassigned) [Example 51] | 
138 | 40.5 (≈ 84.3 µM) | 2.75 | 0.4 | 0.1 | CC(C)Oc1cc2nn([C@@]34CC[C@@](C)(C3)OC4)cc2cc1C(=O)Nc1cccn([C@H]2C[C@H]2F)c1=O [Example 50, N-(1-((1S,2R)-2-fluorocyclopropyl)-2-oxo-1,2-dihydropyridin-3-yl)-6-isopropoxy-2-((1S,4S)-1-methyl-2-oxabicyclo[2.2.1]heptan-4-yl)-2H-indazole-5-carboxamide] | 
